The values below come from patent US20150152101A1, “ACTIVE COMPOUNDS FOR COMBATING GREASY SKIN” (L'OREAL, priority 2012, published 2015).

SMILES strings stand for the structures.

Common to all, as to format: cell-based
The test system of assay [1] is Episkin™ reconstructed epidermis. Put plainly: HES morphological observation of treated Episkin reconstructed epidermis. The note with it: systemic treatment over 5 days. On the procedure:
(§1) The samples of reconstructed epidermis, received from the company Episkin at six days of reconstruction, were recultured as soon as received in 3.5 ml of differentiation medium (Episkin™ medium) under insert (in immersion) for 48 hours in an incubator (37° C., 5% CO2).
(§2) The epidermis samples were then placed in contact with the test compounds systemically. The Episkin™ differentiation culture medium is changed for a differentiation medium containing the test compounds with 0.1% of final DMSO vehicle. The epidermis samples were recultured in an incubator for 48 hours. A new systemic treatment is performed for a further 72 hours of culture in the incubator.
(§3) For the treatment on Episkin™, each test compound was prepared extemporaneously by weighing out and dissolving at 10 mM in DMSO, and was then used to treat 3 samples of reconstructed epidermis. […] The positive controls used were vitamin D3, retinol and calcipotriol (a vitamin D3 analogue).
(§4) The epidermis samples were collected (3 epidermis samples per treatment) for histological analysis and protein extracts (the same reconstructed epidermis is used for the histological study and the protein extract).
The morphological control of the treated reconstructed epidermis samples was performed by staining with HES (haematoxylin-eosin-saffron) according to a standard protocol on histological slices of the samples included in paraffin (toluene bath: three times 15 minutes; 100° alcohol baths: twice for 1 minute; 95° alcohol baths: 1 minute; rinsing in water baths; haematoxylin bath: once for 2 minutes; rinsing in water baths; short dipping in a hydrochloric acid bath; rinsing in water; eosin bath: once for 1 minute; rinsing in water; short dipping in a 100° alcohol bath; saffron bath (5 minutes); short dipping in a 100° alcohol bath; toluene bath: three times for 2 minutes).

The test system of assay [2] is corneodesmosin. Put plainly: Western blot of corneodesmosin in extracts of treated Episkin reconstructed epidermis. Particulars: systemic treatment over 5 days, grade relative to reference, generally for the highest concentration used (tested 1 and 10 μM), (*) = most active. The protocol: as §1, §2
For the treatment on Episkin™, each test compound was prepared extemporaneously by weighing out and dissolving at 10 mM in DMSO, and was then used to treat 3 samples of reconstructed epidermis. Furthermore, each test compound was used in a proportion of 1 and 10 μM final in the culture medium (0.1% DMSO final). The positive controls used were vitamin D3, retinol and calcipotriol (a vitamin D3 analogue).
The epidermis samples were collected (3 epidermis samples per treatment) for histological analysis and protein extracts (the same reconstructed epidermis is used for the histological study and the protein extract). […]

In assay [3] the test system is Ki67. Description: Ki67 immunolabelling of treated Episkin reconstructed epidermis. The note with it: for Ki67: Episkin, systemic treatment over 5 days. On the procedure: as §1, §2, §3, §4
The epidermis samples were included in OCT for freezing in liquid nitrogen and then stored at −80° C. The blocks obtained were sliced using a cryostat to a thickness of 7 μm, and the slices were dried and stored at −20° C. while awaiting immunolabelling.
The marker chosen for the immunolabellings is Ki67, which affords information regarding a possible modification of the cell proliferation in the basal layer.

The mark [4] stands for this setting: grade relative to reference, generally for the highest concentration used (tested 1 and 10 μM), (*) = most active.

In assay [1] (setting [4]), `C=C1CC[C@H](O)C/C1=C/C=C1\CCC[C@]2(C)[C@@H]([C@H](C)CCCC(C)C)CC[C@@H]12` [Vitamin D3] showed an HES of 0. Moreover, the CDSN in assay [2] stood at 0. In assay [3] (grade relative to reference, generally for the highest concentration used (tested 1 and 10 μM)), `Cn1c2c(c(=O)n(C)c1=O)C(c1cccc(O)c1)C1=C(N2)c2ccccc2C1=O` (centres unmarked) [Compound (2)] showed a Ki67 of 0. `COc1cc(C2C3=C(Nc4c2c(=O)n(C)c(=O)n4C)c2ccccc2C3=O)cc(OC)c1O` (centres unmarked) [Compound (6)]: the HES result in assay [1] (setting [4]) is listed as “++ (*)”. As for `Cn1c2c(c(=O)n(C)c1=O)C(c1ccc(O)cc1)C1=C(N2)c2ccccc2C1=O` (centres unmarked) [Compound (5)], the “Ki67 labelling (FIG. 2)” value in assay [3] (Episkin treated in the absence and presence of compound, result in words) is recorded as “marked, or even occasionally total, decrease of the Ki67 labelling”. Turning to `COc1cccc(C2C3=C(Nc4c2c(=O)n(C)c(=O)n4C)c2ccccc2C3=O)c1` (centres unmarked) [Compound (1)], the CDSN entry in assay [2] is “++ (*)”. `CC1=C(/C=C/C(C)=C/C=C/C(C)=C/CO)C(C)(C)CCC1` [Retinol] registered an HES in assay [1] (100 μM) of 0. Also, the Ki67 in assay [3] (100 μM) turned out to be 0.
